Tests used:
[1] = tested on: ptc-1 lacZ reporter gene expression in lung explants; experiment: E12.5 ptc-1 (d11) lacZ lung explant culture, lacZ staining; assay type: cell-based, mouse; conditions: lung explants grown 48 hrs, versus untreated control
Method: In yet another experiment, E12.5 old ptc-1 (d11) lacZ lungs were harvested and transgenic embryos identified by lacZ detection using tails. Lung explants were grown submerged in mouse explant medium (DMEM based, additives optimized for the culture of mouse lungs) for 48 hrs, fixed in lacZ fixative, rinsed and stained for lacZ O/N at 37° C. Control tissue was untreated, while test tissue was treated with 11. Results are depicted in FIG. 34: (A) Untreated control. Strong lacZ expression can be observed in distal and proximal mesenchyme.

murine BCC lesions = experiment: Cultured skin punches with BCC lesions from UV-irradiated Ptc-knockout heterozygote mouse (X-gal staining); assay type: cell-based
Method: Mouse 456 is a Ptc-knockout heterozygote that received UV irradiation for 6 months. The mouse developed many small BCC lesions, which were blue after X-gal staining. The mouse was sacrificed and the skin was excised with a 2 mm skin punch. Those skin punches were then cultured for 6 days. […] The effect was more obvious when 10 μM of 11 was added to the culture medium instead of 5 μM of 11.

[2] = tested on: gli-1 mRNA in ptc-null cells; experiment: Ptc-null assay (RT-PCR / quantitative real-time PCR of gli-1 mRNA); assay type: cell-based, mouse; conditions: ptc-null cells cultured 3 days, 1 μM of test compound, compared with vehicle
Method: Ptc-null cells were cultured for 3 days in the presence of vehicle; jervine, a known Patched pathway antagonist (i) used here as a positive control; or 1 μM of a test compound. Total ribonucleic acid (RNA) was isolated from the cells and used for reverse transcriptase-polymerase chain reaction (RT-PCR). […] The gli-1 and actin mRNA samples were then loaded on 1.5% agarose gel and were detected by staining with ethidium bromide. The same samples were analyzed by the quantitative real-time polymerase chain reaction method to quantify the levels of gli-1 mRNA.

[3] = tested on: Hedgehog pathway (Shh-induced Gli-transcription activity) in 10T1/2(s12) cells; experiment: Gli-Luc assay (high-throughput screening, Hedgehog-responsive luciferase reporter); assay type: cell-based; conditions: Gli-Luc response, OCT-SHH 0.3 μg/ml, about 24 h
Method: Compounds to be tested are dissolved in DMSO to a concentration of 10 mM, and stored at −20° C. To activate the Hedgehog pathway in the assay cells, an octylated (lipid-modified) form of the N-terminal fragment of the Sonic Hedgehog protein (OCT-SHH) is used. This N-terminal SHH fragment is produced bacterially. The octylation involves reaction of the N-terminal fragment, via its amino-terminal cysteine moiety, with octyl maleimide.
Compounds may be tested in the “Gli-Luc” assay below, using the cell line 10T(s12), wherein the cells contain a Hedgehog-responsive reporter construct utilizing Luciferase as the reporter gene. In this way, Hedgehog pathway signaling activity can be measured via the Gli-Luc response.
10t1/2(s12) cells are plated in a 96-well micro-titer plate (MTP) at 20,000 cells/well in full medium [DMEM with 10% FBS]. Then plates are placed in the incubator for incubation overnight (O/N), at 37° C. and 5% CO2. After 24 h, the medium is replaced with Luciferase-assay medium (DMEM with 0.5% FBS). Compounds are thawed and diluted in assay medium at 3:1000 (about 300-fold) resulting in a starting concentration of about 30 μM.
Subsequently, 150 μl of each 30 μM sample is added to the first wells (in triplicate). The MTP samples are then diluted at 3-fold dilutions to a total of seven wells, ultimately resulting in a regiment of seven dilutions in triplicate, for each compound. Next, the protein ligand OCT-SHH is diluted in Luciferase-assay medium and added to each well at a final concentration of 0.3 μg/ml. Plates are then returned to the incubator for further incubation O/N, at 37° C. and 5% CO2. After about 24 h, plates are removed from the incubator and the medium is aspirated/discarded. Wells are washed once with assay buffer [PBS+1 mM Mg^2+ and 1 mM Ca^2+]. Then 50 μl of assay buffer is added to each well. The Luciferase assay reagent is prepared as described by the vendor (LucLite kit from Packard), and 50 μl is added to each well. Plates are incubated at room temperature (RT) for about 30 minutes after which the signals are read, again at RT, on a Topcount (Packard).

**Q.** `CC(c1nc2ccccc2c(=O)n1-c1ccc(F)cc1)N(C)C(=O)Nc1cccc(C(F)(F)F)c1` (centres unmarked) [Compound 11, 2-{1′-[N-(3″-trifluoromethylphenylcarbamoyl)-N-methyl-amino]ethyl}-3-(4′″fluorophenyl)-quinazolin-4-one] was tested. Which “lacZ reporter gene expression” value [1] did it give?
**A.** significantly decreased reporter gene expression

**Q.** What about the “effect on BCC lesions at 10 μM instead of 5 μM” value (murine BCC lesions; 10 μM versus 5 μM in culture medium, 6 days) of the same compound?
**A.** more obvious

**Q.** What about the “number and size of BCC lesions (blue spots)” value (murine BCC lesions; skin punches of mouse 456 cultured for 6 days, compared to vehicle (DMSO), 5 or 10 μM) of the same compound?
**A.** can decrease the number and size of BCC lesions

**Q.** And the “expression of gli-1” value [2]?
**A.** no significant decrease

**Q.** What about the IC50 [3] of the same compound?
**A.** < 5 µM
